These are literature values, as cited in patent US20070191305A1, “Chromone complexes” (priority 2004, published 2007).

For data set [1] the following is noted: over the entire pH range.

As for `O=C1CCOc2ccccc21` [Example 4-chromanone, 4-chromanone], in the data set with keratinocyte cultures, the cell differentiation result is on record as “promotes cell differentiation” and the lipid production result was “stimulates lipid production”.

With `O=c1c(O)c(-c2ccc(O)c(O)c2)oc2cc(O)cc(O)c12` [Quercetin, 3,3′,4′,5,7-pentahydroxyflavone], the “antioxidant activity amongst the hydroxyflavones investigated” value in data set [1] is on record as “greatest activity”.
